Measured values reported in ChEMBL document CHEMBL1153649, “Peptidyl epoxides as inhibitors of -chymotrypsin: Remarkable change from irreversible to reversible competitive inhibitor as a consequence of the improvement of binding affinity” (Bioorg Med Chem Lett, 1996).

Experiments:
[1] = target: T1, Chymotrypsinogen B (Homo sapiens, UniProt P17538); experiment: Inhibitory potency was evaluated against alpha-chymotrypsin
[2] = target: T1, Chymotrypsinogen B; experiment: Compound was tested for inhibitory activity against alpha-chymotrypsin

T1 sequence (P17538 34-164 limits assumed, other chains not shown): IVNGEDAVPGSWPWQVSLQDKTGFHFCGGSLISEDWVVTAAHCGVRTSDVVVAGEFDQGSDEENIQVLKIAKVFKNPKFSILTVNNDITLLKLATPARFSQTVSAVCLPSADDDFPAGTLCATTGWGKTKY
T1 sequence (P17538 167-263 limits assumed, other chains not shown): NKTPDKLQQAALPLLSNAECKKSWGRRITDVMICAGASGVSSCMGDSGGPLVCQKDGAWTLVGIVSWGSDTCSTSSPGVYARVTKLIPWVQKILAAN

K inact/Ki [1] | Ki [2] | Compound
27 M⁻¹ s⁻¹ | – | COC(=O)[C@@H](Cc1ccccc1)[C@@H]1CO1 (single isomer, unassigned)
– | 820 µM | O=C(N[C@@H](Cc1ccccc1)[C@@H]1CO1)C1CCCN1C(=O)c1ccccc1 (single isomer, unassigned)
